Results published in patent publication US10695482B2, “Cartridge and method for increasing myocardial function” (SeaStar Medical, Inc., priority 2011, dated 2020).

Columns and labels:
[1] = test system: leukocytes in porcine blood; test: Microscopic flow chamber: leukocyte interaction with polysulfone membrane; type: cell-based, pig
Source text: A custom microscopic flow chamber system was set up to enable microscopic analysis of leukocyte interaction with the SCD membrane. The flow chamber consisted of a polycarbonate housing with an inlet and outlet for perfusion. A polysulfone membrane was affixed to the polycarbonate block with a gasket which directed shear flow. The thickness of the gasket (100 μm) along with the length (2 cm) and the width of the channel (1.5 mm) determined the volume of the flow chamber. Microscopic imaging was accomplished through an optical window made up of a cover glass affixed to the bottom of the polycarbonate block. Either isolated blood or purified leukocytes were used for this study.
Isolated blood was prone to activation from excessive handling. Thus, 5 mL of fresh heparinized porcine blood was minimally manipulated prior to the flow chamber study. Briefly, leukocytes were fluorescently labeled using 50 μg/mL of Hoechst 33342 dye. Further, the leukocytes were activated by adding 1 μg/ml lipopolysaccharide (LPS) directly to the blood samples. […] Blood passed through the flow chamber at a rate of 20 μL/min with calculated shear forces between 1-10 dynes/cm^2. For each isolated blood sample, sequences were acquired in triplicate.
Microscopic analysis of cell capture events was accomplished using either a Zeiss Axiovert 200M or Axio-Observer epifluorescence microscope equipped with a microscope stage-top incubator to control environmental temperature and CO2 content. Fluorescence images were acquired with either a Zeiss MRm3 or an Icc1 camera at a frequency of 1 frame/second for 5 minutes, for analysis of leukocyte/membrane interaction, and at 1 frame/minute for 1 hour sequences, for analysis of long term leukocyte attachment. Frame by frame evaluation of leukocyte rolling, attachment and detachment of leukocytes was carried out to determine the total number and duration of these phenomena. An attachment event was defined as when a leukocyte appeared in the same location for multiple frames within a sequence. […]

[2] = test system: leukocytes in human whole blood; test: In vitro whole blood leukocyte activation assay; type: cell-based; details: for CD11b: n = 3; for IL-10: n = 4; for IL-8: n = 5; for IL-6: n = 7
Method: Heparinized human whole blood was added to tubes with or without lipopolysaccharide (LPS) (10 μg/mL) or formyl-Methionyl-Leucyl-Phenylalanine (fMLF, 50 nM). […] The release of IL-6, IL-8, or IL-10 was measured using commercially available ELISA kits from R&D Systems. The release of elastase was measured using a commercially available ELISA kit from Bender MedSystems. The release of lactoferrin was measured using a commercially available ELISA kit from EMD Chemicals. […] Samples were incubated for various times at 37° C. and 5% CO2. CD11b activation was measured using an FITC-conjugated mouse anti-human antibody (AbD Serotech) and evaluated on an Accuri C6 flow cytometer.

| Molecule | persistent leukocyte adhesion events ([1]; 1 hour sequences, LPS and citrate versus LPS only, preliminary analysis) | rolling events ([1]; LPS and citrate treated blood) | leukocyte attachment to polysulfone membranes during shear flow ([1]; LPS-activated blood, low ionized calcium, FIG. 17) | CD11b ([2]; Baseline) | IL-10 ([2]; Baseline) | IL-8 ([2]; Baseline) | IL-6 ([2]; Baseline) | CD11b ([2]; Stimulated (LPS, fMLF)) | IL-10 ([2]; Stimulated (LPS, fMLF)) | IL-8 ([2]; Stimulated (LPS, fMLF)) | IL-6 ([2]; Stimulated (LPS, fMLF)) |
| --- | --- | --- | --- | --- | --- | --- | --- | --- | --- | --- | --- |
| O=C(O)CC(O)(CC(=O)O)C(=O)O [Citrate] | far fewer persistent leukocyte adhesion events | increase in rolling events | statistically significant decrease in leukocyte attachment |  |  |  |  |  |  |  |  |
| Heparin |  |  |  | 22.55 ± 1.06 MFI × 10^3 | 0.11 ± 0.07 ng/mL | 0.0 ± 0^ ng/mL | 0.18 ± 0.04 ng/mL | 53.43 ± 3.12 MFI × 10^3 | 3.74 ± 0.94 ng/mL | 34.18 ± 6.66 ng/mL | 65.42 ± 19.77 ng/mL |
